Test results as given in patent US20260060947A1 (INSTITUT PASTEUR DE MONTEVIDEO, priority 2019, published 2026).

How the values were obtained:
[1] = system: NF-κB-p65; experiment: LPS-induced NF-κB-p65 nuclear translocation in BV2 cells (immunocytochemistry); format: cell-based, murine; settings: BANA 10, 20, 30 μM, BA 30 μM or DMF for 3 hrs before LPS 100 ng/ml
Description: The effect of BANA on nuclear translocation of NF-κB was studied by immunocytochemistry using murine microglia cell line BV2.
Cells were then treated with BANA (10, 20 and 30 μM) or B.A (30 μM) for 3 hrs. After treatment, cells were stimulated with LPS (100 ng/ml) for 30 minutes. Then, cells were washed and fixed with PFA 4% for 20 minutes at 4° C. and washed with PBS. Immunocytochemistry was performed as follows: cells were permeabilized using 0.5% Triton in PBS for 15 minutes, and then blocked using 5% of BSA for 1 h at room temperature. Rabbit anti-NF-κB-p65 (ab16502, 1/200) and mouse anti-CD11b (BD550219, 1/100) were incubated overnight at 4° C. After that, primary antibodies were removed, washed with PBS 3 times for 10 minutes, and Alexa-fluor-conjugated goat anti-rabbit or goat anti-mouse antibodies (1:1000) were incubated for 2 h at room temperature. After secondary antibodies were removed, cells were covered in glycerol mounting medium with 1/2000 DAPI staining. Cells were analyzed by confocal microscopy using a confocal ZEISS LSM 800. NF-κB-p65+ nuclei were counted and ratio of DAPI to NF-κB-p65 labeling was compared among groups. Data were analyzed using analyzing tools of ImageJ and GraphPad Prism 7 software.

[2] = system: NLRP3 inflammasome; experiment: Inflammasome activation in THP-1 cells (LPS and ATP), IL-1β ELISA; format: cell-based, Human; settings: 30 μM, in first or second signal (LPS and ATP), compared with vehicle
Description: The effect of BANA or BA over NF-κB-dependent gene expression was studied by qPCR using THP-1 cells. THP-1 cells were differentiated into macrophages and treated with BANA (30 μM) or BA (30 μM) for 2 hs, followed by stimulation with LPS (100 ng/mL, for 3-4 h).
For inflammasome activation, THP-1 cells were treated with LPS (as above) followed by exposure to ATP (5 mM, 45 min). IL-1β in the supernatant was then measured by ELISA (B&D OptEIA TM, San Diego, CA, USA).

[3] = system: NF-κB-p65; experiment: LPS-induced NF-κB-p65 nuclear translocation in SOD1^G93A primary microglia; format: cell-based, rat; settings: BANA 10-30 μM before LPS
Description: FIG. 8D: Confocal images show CD11b-positive SOD1^G93A primary microglia (grey) treated with BANA, BA or vehicle, before LPS stimulation. […] Nuclear NF-κB-p65 colocalizing with DAPI nuclear staining is denoted in yellow.
Nuclear NF-κB-p65 colocalizing with DAPI nuclear staining is denoted in yellow. […] Scale bar=20 μm. […] 2 replicates of 3 independent experiments.
The effects of BANA on LPS- or TNFα-induced NF-κB activation were also assayed in cell cultures of BV2 microglial cell line and primary adult microglia isolated from symptomatic SOD1^G93A rats, and HT-29 NF-κB reporter cell line, respectively.

O=C(O)c1ccccc1 [benzoic acid, reference compound]
LPS-induced NF-κB-p65 nuclear translocation [1]: devoid of inhibitory effect
release of IL-1β [2]: devoid of anti-inflammatory effects
LPS-induced NF-κB-p65 nuclear translocation [3]: devoid of inhibitory effect
